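Compound exposure: 48 hours, 5 concentrations, 96-well plates. GI50 = concentration required for 50% inhibition of growth.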 Active and inactive are the calls of the source. No stated cut-off is given here; in the data, active = GI50 up to about 1.1 µM and inactive = higher.
Legend:
Assay in all cases: NCI-60 cell line screen, 48 h
[1] = system: SF-295
[2] = system: SK-OV-3
[3] = system: T47D
[4] = system: NCI-H460
[5] = system: DU-145
[6] = system: Hs-578T
[7] = system: KM12
[8] = system: PC-3
[9] = system: MOLT-4
[10] = system: COLO 205
[11] = system: U-251
[12] = system: A498
[13] = system: MDA-MB-435
[14] = system: SR
[15] = system: SN12C
[16] = system: SF-539
[17] = system: SNB-19
[18] = system: SK-MEL-28
[19] = system: NCI-H522
[20] = system: SK-MEL-2

Measured: GI50

O=[N+]([O-])c1cccc([N+](=O)[O-])c1S(=O)(=O)c1ccccc1
inactive: [1] 16.4 µM | [2] 16.8 µM | [3] 2.13 µM | [4] 21.7 µM | [5] 6.05 µM | [6] 20.8 µM | [7] 16.1 µM | [8] 11.9 µM | [9] 3.38 µM | [10] 6.18 µM | [11] 8.95 µM | [12] 18.8 µM | [13] 3.61 µM | [14] 1.63 µM | [15] 3.83 µM | [16] 15.8 µM | [17] 18.3 µM | [18] 4.16 µM

CN(C)c1nc2oc(-c3ccccc3)c(-c3ccccc3)c2c2nncn12
inactive: [1] > 100 µM | [19] > 100 µM | [2] > 100 µM | [3] > 100 µM | [5] > 100 µM | [6] > 100 µM | [7] > 100 µM | [9] > 10 µM | [10] > 100 µM | [11] > 100 µM | [12] > 100 µM | [13] > 100 µM | [14] > 100 µM | [15] > 100 µM | [16] > 100 µM | [17] > 100 µM | [18] > 100 µM

COC(=O)c1cc(C(=CCC[C@H]2CC[C@@]3(C)C(CCC4C3CC[C@@]3(C)C4CC[C@@H]3C(C)CCCC(C)C)C2)c2cc(Cl)c(O)c(C(=O)OC)c2)cc(Cl)c1O (stereo not given in full)
inactive: [1] > 10 µM | [19] > 10 µM | [2] > 10 µM | [3] > 10 µM | [4] > 10 µM | [5] > 10 µM | [6] > 10 µM | [7] > 10 µM | [8] > 10 µM | [9] > 10 µM | [10] > 10 µM | [11] > 10 µM | [13] > 10 µM | [14] > 10 µM | [15] > 10 µM | [16] > 10 µM | [17] > 10 µM | [18] > 10 µM | [20] > 10 µM

Nc1ccc2nc3ccc(=O)cc-3n(-c3ccccc3)c2c1
inactive: [1] > 100 µM | [19] 38.1 µM | [2] > 100 µM | [3] > 100 µM | [4] > 100 µM | [5] > 100 µM | [6] 75.9 µM | [7] 7.18 µM | [8] 91.4 µM | [9] > 100 µM | [10] 41 µM | [11] 86.3 µM | [12] 32.8 µM | [13] 66.7 µM | [15] > 100 µM | [16] 31.6 µM | [17] > 100 µM | [18] > 100 µM | [20] > 100 µM

O=C(O)c1ccc(C(O)(c2ccccc2)c2ccccc2)cc1
inactive: [1] > 100 µM | [19] > 100 µM | [2] > 100 µM | [3] > 100 µM | [5] > 100 µM | [6] > 100 µM | [7] > 100 µM | [8] > 100 µM | [9] > 100 µM | [10] > 100 µM | [11] > 100 µM | [13] > 100 µM | [14] > 100 µM | [15] > 100 µM | [17] > 100 µM | [18] > 100 µM

Cc1ncc(CO)c(CN)c1O
inactive: [1] > 100 µM | [19] > 100 µM | [2] > 100 µM | [3] > 100 µM | [4] > 100 µM | [5] > 100 µM | [6] > 100 µM | [7] > 100 µM | [8] > 100 µM | [9] > 100 µM | [10] > 100 µM | [11] > 100 µM | [12] > 100 µM | [13] > 100 µM | [15] > 100 µM | [16] > 100 µM | [17] > 100 µM | [18] > 100 µM | [20] > 100 µM

COc1nc(=O)n(C2CC(N=[N+]=[N-])C(CO)O2)cc1C (stereo not given)
inactive: [1] > 100 µM | [19] > 100 µM | [3] > 100 µM | [4] > 100 µM | [5] > 100 µM | [6] > 100 µM | [7] > 100 µM | [8] > 100 µM | [9] > 100 µM | [11] > 100 µM | [13] > 100 µM | [14] > 100 µM | [15] > 100 µM | [16] > 100 µM | [17] > 100 µM | [18] > 100 µM | [20] > 100 µM

— ChEMBL document CHEMBL1201862, “PubChem BioAssay data set” (2004)
